Values quoted from earlier work, collected in patent US20030113270A1, “Vasoactive intestinal peptides for glaucomatous retinopathy” (priority 2001, published 2003).
Where no end group is shown, it is not given here.

Test system: neuronal survival

In the case of “vasoactive intestinal polypeptide (HSDAVFTDNYTRLRKQMAVKKYLNSILN; ends and bridges not checked; UniProt P01282 125-152, looked up) [VIP, 28 amino acid neuropeptide]”, the neuroprotection (Alzheimer's disease-relevant models) is listed as “provide neuroprotection”.
In the case of Stearyl-norleucine^17-VIP [SNV], the “potency in promoting neuronal survival relative to VIP” value (more potent than VIP) is listed as 100 fold.
